# Reference: paper PMC3063827, “Myosin-cross-reactive antigen (MCRA) protein from Bifidobacterium breve is a FAD-dependent fatty acid hydratase which has a function in stress protection” (BMC Biochemistry, 2011)
# Target: T1, MCRA (myosin-cross-reactive antigen; FAD-dependent fatty acid hydratase) (Bifidobacterium breve, UniProt F1CWI2)
# T1 construct: 1878 bp gene), N-terminal 6x His tag, pET28 (pBBI2), E. coli BL21 Star, HisTrap purified, ~66 kDa on SDS-PAGE; primers begin at MYYSSGNYE
# T1 sequence (F1CWI2 1-625): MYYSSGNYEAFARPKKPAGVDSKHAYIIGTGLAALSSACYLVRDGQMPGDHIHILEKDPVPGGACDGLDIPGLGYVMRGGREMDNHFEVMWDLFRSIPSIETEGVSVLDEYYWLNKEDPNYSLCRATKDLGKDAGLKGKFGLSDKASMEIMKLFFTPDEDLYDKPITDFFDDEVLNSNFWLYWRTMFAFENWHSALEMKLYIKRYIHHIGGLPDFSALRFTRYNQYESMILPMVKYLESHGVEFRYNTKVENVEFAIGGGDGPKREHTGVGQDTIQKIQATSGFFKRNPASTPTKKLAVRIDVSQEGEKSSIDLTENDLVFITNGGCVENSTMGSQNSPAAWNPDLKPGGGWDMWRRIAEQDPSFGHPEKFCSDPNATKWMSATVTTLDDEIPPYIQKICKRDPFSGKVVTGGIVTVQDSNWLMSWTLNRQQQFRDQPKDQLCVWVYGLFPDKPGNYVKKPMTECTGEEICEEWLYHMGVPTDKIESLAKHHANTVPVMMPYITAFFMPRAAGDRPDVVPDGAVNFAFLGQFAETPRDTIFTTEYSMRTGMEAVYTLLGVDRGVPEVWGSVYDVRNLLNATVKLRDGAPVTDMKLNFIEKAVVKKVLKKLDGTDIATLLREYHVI
# Experiment: UV-Vis absorption spectrum of purified protein and of supernatant after heat denaturation
# Assay type: binding
# Conditions: non-covalent, co-purified; flavin-like maxima ~450 and 370 nm; FAD identity rests on spectrum and analogy to S. pyogenes MCRA (FMN also run as reference)
smiles,measurement,value
Cc1cc2nc3c(=O)[nH]c(=O)nc-3n(C[C@H](O)[C@H](O)[C@H](O)COP(=O)(O)OP(=O)(O)OC[C@H]3O[C@@H](n4cnc5c(N)ncnc54)[C@H](O)[C@@H]3O)c2cc1C [FAD],UV-Vis absorption spectrum of purified protein and of supernatant after heat den,flavin cofactor is released in the solution upon protein denaturation by heat
